Experimental data as given in US20240417729A1, “THERAPEUTIC TREATMENT FOR FRAGILE X-ASSOCIATED DISORDER” (University of Massachusetts, priority 2021, published 2024).
Values joined by “and” are separate entries in the source; they are usually repeats but may differ in a detail not shown here. Equal entries are not always repeated. “Also recorded” adds a separate entry of the source. Where two headings read alike, the source gives them in different places.

Legend:
FMR1-217 RNA [1] = experiment: RT-qPCR of FMR1-217 and full-length FMR1 in fully methylated FXS1 LCL (GM07365) treated with 5-AzadC and/or ASOs; assay type: cell-based, human; conditions: 5-AzadC (5-AzaC) 1 μM alone, 7 days, vs DMSO
Method: For each cell culture, 30×10^5 cells/mL were added in a final volume of 20 mL medium (RPMI 1640 medium (Sigma-Aldrich), supplemented with 15% FBS and 2.5% L-glutamine at 37° C. with 5% CO2) per T25 flask. 5-Aza-2′-deoxycytidine (5-AzaC) (Sigma-Aldrich, A3656) was added to the cell cultures (final concentration 1 μM) for 7 consecutive days. A 2 mM stock of 5-AzaC was made in DMSO. For each cell line, two independent treatments were performed (n=2). For the no treatment controls for each cell line, DMSO was added to the flasks. For samples with both 5-AzaC and ASO treatment, 80 nM ASOs or vehicle were added on Day 1 and either 5-AzaC or DMSO was added each day from Day 2 up to Day 9 at a final concentration of 1 μM. On Day 9 the cells were collected in 1×Phosphate buffered saline to proceed with RNA extraction or Western blotting.
(§1) One microgram (μg) of total RNA was primed with oligo(dT)20 to generate cDNA with a QuantiTect cDNA synthesis kit (Qiagen, #205311) using random hexamers (Table 3). qPCR was performed using the iTaq™ Universal SYBR® Green Supermix (BIO-RAD #1725122) on a QuantStudio 3 qPCR machine in duplicate.
(§2) Antisense oligonucleotides (ASOs) were dissolved in ultrapure distilled water to a final concentration of 10 μM. Before use, the ASOs were heated to 55° C. for 15 minutes and cooled at room temperature. ASOs were added, individually or in combinations, to LCL cell lines at a final concentration of 80 nM or 160 nM using Lipofectamine RNAIMAX® Transfection Reagent (Thermo Fisher Scientific, 13778030) and incubated at 37° C. with 5% CO2 for 16 hours in reduced serum medium. RPMI 1640 medium (Sigma-Aldrich), supplemented with 15% fetal bovine serum (FBS) was added for a total of 72 hours. The cells were collected after 72 hours of ASO treatment for RNA and protein extraction.
For each cell culture, 30×10^5 cells/mL were added to a final volume of 20 mL medium (RPMI 1640 medium (Sigma-Aldrich) supplemented with 15% fetal bovine serum (FBS) and 2.5% L-glutamine at 37° C. with 5% CO2) per T25 flask. 5-Aza-2′-deoxycytidine (5-AzadC) (Sigma-Aldrich, A3656) was added to the cell cultures (final concentration 1 μM) for 7 consecutive days. A 2 mM stock of 5-AzadC was made in DMSO. For each cell line, two independent treatments were performed (n=2). For the no treatment controls for each cell line, DMSO was added to the flasks. For samples with both 5-AzadC and ASO treatment, 80 nM or 160 nM ASOs or vehicle were added on Day 1 and either 5-AzadC or DMSO was added each day from Day 2 up to Day 9 at a final concentration of 1 μM. On Day 9 the cells were collected in 1× phosphate buffered saline to proceed with RNA extraction or Western blotting. […]

FMRP [2] = experiment: Western blot of FMRP relative to GAPDH in FXS1 LCL (GM07365); assay type: cell-based, human; conditions: 5-AzadC 1 μM alone, 7 days
Method: For each cell culture, 30×10^5 cells/mL were added in a final volume of 20 mL medium (RPMI 1640 medium (Sigma-Aldrich), supplemented with 15% FBS and 2.5% L-glutamine at 37° C. with 5% CO2) per T25 flask. 5-Aza-2′-deoxycytidine (5-AzaC) (Sigma-Aldrich, A3656) was added to the cell cultures (final concentration 1 μM) for 7 consecutive days. A 2 mM stock of 5-AzaC was made in DMSO. For each cell line, two independent treatments were performed (n=2). For the no treatment controls for each cell line, DMSO was added to the flasks. […]
Cells were homogenized at 4° C. in RIPA buffer with incubation on ice for 10 minutes and dissociation by pipetting. […] Protein concentration was determined by BCA reagent. Proteins (10 μg) were diluted in SDS-bromophenol blue reducing buffer with 40 mM DTT and analyzed using western blotting on a 10% SDS-PAGE gel with the following antibodies: FMRP (Abcam, 1:2000) and GAPDH (Cell signaling, 1:2000) diluted in 1×TBST with 5% non-fat milk. […]
Cells were homogenized at 4° C. in RIPA buffer, with incubation on ice for 10 minutes and dissociation by pipetting. […] Protein concentration was determined using BCA reagent. […]
Cells were homogenized at 4° C. in radioimmunoprecipitation assay (RIPA) lysis buffer with incubation on ice for 10 minutes and dissociation by pipetting. […] Protein concentration was determined by BCA reagent.

FMR1-217 RNA [3] = experiment: RT-qPCR of FMR1-217 and full-length FMR1 in partially methylated FXS2 LCL (GM06897); assay type: cell-based, human; conditions: 5-AzadC 1 μM, 7 days, vs DMSO
Method: as §1, §2
For each cell culture, 30×10^5 cells/mL were added to a final volume of 20 mL medium (RPMI 1640 medium (Sigma-Aldrich) supplemented with 15% fetal bovine serum (FBS) and 2.5% L-glutamine at 37° C. with 5% CO2) per T25 flask. 5-Aza-2′-deoxycytidine (5-AzadC) (Sigma-Aldrich, A3656) was added to the cell cultures (final concentration 1 μM) for 7 consecutive days. A 2 mM stock of 5-AzadC was made in DMSO. […]

FMRP [4] = experiment: Western blot of FMRP relative to GAPDH in FXS2 LCL (GM06897); assay type: cell-based, human; conditions: 5-AzadC 1 μM, 7 days
Method: as §2, with “The cells were collected after 72 hours of ASO treatment for RNA and protein extraction.” left out
Cells were homogenized at 4° C. in RIPA buffer, with incubation on ice for 10 minutes and dissociation by pipetting. The extract was centrifuged at 13,200 rpm for 10 minutes at 4° C., and the supernatant collected. Protein concentration was determined using BCA reagent. Proteins (10 μg) were diluted in SDS-bromophenol blue reducing buffer with 40 mM DTT and analyzed using western blotting with the following antibodies: FMRP (Millipore, mAb2160, 1: 1,000), FMRP (Abcam, ab17722, 1:1,000) and GAPDH (14C10, Cell Signaling Technology, mAb 2118, 1:2,000), diluted in 1×TBST with 5% non-fat milk. […]
Cells were homogenized at 4° C. in radioimmunoprecipitation assay (RIPA) lysis buffer with incubation on ice for 10 minutes and dissociation by pipetting. […] Protein concentration was determined by BCA reagent. […]

FMRP [5] = experiment: Western blot of FMRP in FXS dermal fibroblasts (GM05131B); assay type: cell-based, human; conditions: 5-AzadC alone
Method: Cells were homogenized at 4° C. in RIPA buffer, with incubation on ice for 10 minutes and dissociation by pipetting. The extract was centrifuged at 13,200 rpm for 10 minutes at 4° C., and the supernatant collected. Protein concentration was determined using BCA reagent. Proteins (10 μg) were diluted in SDS-bromophenol blue reducing buffer with 40 mM DTT and analyzed using western blotting with the following antibodies: FMRP (Millipore, mAb2160, 1: 1,000), FMRP (Abcam, ab17722, 1:1,000) and GAPDH (14C10, Cell Signaling Technology, mAb 2118, 1:2,000), diluted in 1×TBST with 5% non-fat milk. Membranes were washed three times for 10 minutes with 1×TBST and incubated with anti-rabbit or anti-mouse secondary antibodies (Jackson, 1:10,000) at room temperature for 1 hour. Membranes were washed three times for 10 minutes with 1×TBST, developed with ECL-Plus (Piece), and scanned with GE Amersham Imager.
Cells were homogenized at 4° C. in radioimmunoprecipitation assay (RIPA) lysis buffer with incubation on ice for 10 minutes and dissociation by pipetting. The extract was centrifuged at 13,200 rpm for 10 minutes at 4° C., and the supernatant was collected. Protein concentration was determined by BCA reagent.

FMR1-217 RNA [6] = experiment: RT-qPCR of FMR1-217 and FMR1 in FXS lung fibroblasts (GM07072) treated with 5-AzadC and ASOs 713/714; assay type: cell-based, human; conditions: fully methylated FMR1, 5-AzadC in the absence of ASOs
Method: FIG. 15D Lung fibroblasts derived from a FXS individual (GM07072, Coriell Institute) were cultured with 5-AzadC for 8 days and then treated with ASOs 713/714 (100 nM each) for 72 hours prior to RNA and protein extraction. RT-qPCR analysis of FMR1-217, FMR1, and GAPDH RNAs in lung fibroblasts treated with DMSO, ASOs 713/714, 5-AzadC, or the ASOs 713/714 plus 5-AzadC. The amounts of FMR1-217 and FMR1 were made relative to GAPDH. (*p<0.05, **p<0.01, ***p<0.001, one way ANOVA with multiple comparisons test).
FIG. 21D Lung fibroblasts derived from an FXS individual (GM07072, Coriell Institute) were cultured with 5-AzadC for 8 days and then treated with ASOs 713/714 (100 nM each) for 72 hours prior to RNA and protein extraction. RT-qPCR analysis of FMR1-217, FMR1, and GAPDH RNAs in lung fibroblasts treated with DMSO, ASOs 713/714, 5-AzadC, or the ASOs 713/714 plus 5-AzadC. The amounts of FMR1-217 and FMR1 were made relative to GAPDH (*P<0.05, **P<0.01, ***P<0.001, one-way ANOVA with multiple comparisons test).

[7] = system: FMR1 transcripts (total, FMR1-205, FMR1-217); conditions: FXS iPSC-derived NSCs, reanalyzed from RNA-seq data of Vershkov et al., cited from earlier work
FMR1 RNA = conditions: FXS LCLs; 36 days of 5-AzadC; previous study; cited from earlier work

Nc1ncn([C@H]2C[C@H](O)[C@@H](CO)O2)c(=O)n1 [5-AzadC, 5-Aza-2′-deoxycytidine]
FMR1-217 (iso12) RNA level (FMR1-217 RNA [1]): synthesis of both FMR1 and FMR1-217 RNAs; also recorded: increased FMR1-217 RNA levels; also recorded: significant increases; also recorded: expected increase; also recorded: resulted in the expression of FMR1-217 and full-length FMR1
full-length FMR1 (iso1) RNA level (FMR1-217 RNA [1]): synthesis of both FMR1 and FMR1-217 RNAs; also recorded: significant increases; also recorded: expected increase; also recorded: resulted in the expression of FMR1-217 and full-length FMR1
FMR1-217 (iso12) RNA level (FMR1-217 RNA [1]; listed as 5-AzaC): increase in FMR1 iso12
full-length FMR1 (iso1) RNA level (FMR1-217 RNA [1]; listed as 5-AzaC): increase in FMR1 iso1
FMRP level (western blot, relative to GAPDH) (FMRP [2]): little or no FMRP; also recorded: increased FMR1-217 RNA levels but not FMRP; also recorded: In neither cell line did 5-AzadC treatment induce a significant increase in FMRP; also recorded: did not affect FMRP levels; also recorded: unaffected; also recorded: little FMRP; also recorded: modest increase; also recorded: modestly affected
full-length FMR1 RNA level (FMR1-217 RNA [3]): increase of only full-length FMR1 RNA
FMRP level (western blot, relative to GAPDH) (FMRP [4]): In neither cell line did 5-AzadC treatment induce a significant increase in FMRP
FMRP level (western blot) (FMRP [5]): no effect
FMR1-217 RNA level (FMR1-217 RNA [6]): increased
FMR1 RNA level (FMR1-217 RNA [6]): increased
FMR1 (total) reads ([7]; biologic duplicate): 9.9 TPM and 6.1 TPM
FMR1-217 reads ([7]; biologic duplicate): 6.9 TPM and 3.9 TPM
FMR1-217 RNA-seq reads (in words) [7]: clearly evident; also recorded: strong FMR1-217 expression; also recorded: reads corresponding to FMR1-217; also recorded: detected only in the 5-AzadC-treated samples
total FMR1 and FMR1-205 expression (in words) [7]: strong total FMR1 and FMR1-205 expression; also recorded: expressed
FMR1-217 RNA-seq reads (in words) ([7]; listed as 5-azadC): detected only in the 5-azadC-treated samples
FMRP level compared to that in TD cells (FMR1 RNA): even lower level
restoration of FMR1 RNA (FMR1 RNA): up to 40%
